This note sets out measurements from patent US20210401929A1 (Northeast Normal University, priority 2020, published 2021).

The subject of this data set is lung inflammation mice model. Description: LPS lung inflammation mice model, inflammatory factor mRNA in lung by real-time PCR. Conditions: intranasal, peptide alone without LPS. Type of data set: in vivo. In general terms: In qPCR the cycle at which signal appears reflects the starting amount.

In the case of `N=C(N)NCCC[C@H](NC(=O)[C@H](CCCNC(=N)N)NC(=O)[C@H](CCCNC(=N)N)NC(=O)[C@H](CCC(N)=O)NC(=O)[C@H](CCCNC(=N)N)NC(=O)[C@H](CCCNC(=N)N)NC(=O)[C@H](CCCCN)NC(=O)[C@H](CCCCN)NC(=O)[C@H](CCCNC(=N)N)NC(=O)CNC(=O)[C@@H](N)Cc1ccc(O)cc1)C(=O)O` [TAT], the “inflammation in the lungs of mice treated with peptide alone (inflammatory factor mRNA)” value is given as “do not cause inflammation”.
